From US10925823B2, “Synergistic antioxidant compositions” (The Procter & Gamble Company, priority 2018, dated 2021)

Assay: Oxygen Radical Absorbance Capacity (ORAC) Peroxynitrite Assay
Settings: Trolox equivalent; SIN-1 as peroxynitrite source, dihydrorhodamine-123 probe, 37° C.; FIG. 4
From the text: The ORAC assay is the most common method for assessing antioxidant activity. It is based on evaluating the capacity of a test material to protect a probe (e.g., a chromagen) from its damage by oxygen radicals (in this case, peroxynitrite). Results are expressed as micromole Trolox Equivalency per gram of the test material:
This methodology is further discussed in: “Development and validation of an improved oxygen radical absorbance capacity assay using fluorescein as the fluorescent probe.”; Ou, Boxin, Maureen Hampsch-Woodill, and Ronald L. Prior. Journal of agricultural and food chemistry 49.10 (2001): 4619-4626 incorporated herein by reference; and further in “Development and validation of oxygen radical absorbance capacity assay for lipophilic antioxidants using randomly methylated β-cyclodextrin as the solubility enhancer.”, Huang, Dejian, et al. Journal of Agricultural and Food Chemistry 50.7 (2002): 1815-1821, incorporated herein by reference.
Experimental Methodology: The ORAC Peroxynitrite measures the peroxynitrite radical. […] Dihydrorhodamine-123 is the chosen target protein, whose loss of fluorescence (with excitation at 485 nm and emission at 528 nm) is an indication of the extent of damage from its reaction with the peroxynitrite radical. […] Kinetic fluorescence profile is detected using Biotek plate reader with excitation at 485 nm and emission at 528 nm, at 37° C. […]

With [O-]n1ccccc1=S.[O-]n1ccccc1=S.[Zn+2] [ZPT, zinc salt of 1-hydroxy-2-pyridinethione] the “ORAC peroxynitrite antioxidant activity” value was “only individual material that showed appreciable activity”.
